Test results published in ChEMBL document CHEMBL3885861, “Open TG-GATES”.

Species on record: Rattus norvegicus
Assay: Open TG-GATES - Regimen: Single
Format: toxicity, organism-based, Sprague-Dawley
Design: regimen Single, gender Male, age 6 weeks
Conditions: in vivo, po, 100 mg/kg, route gavage, dose level Low; for APTT / Bas / Eos / Fbg / Hb / Ht / Lym / MCH / MCHC / MCV / Mono / Neu / PT / Plat / RBC / Ret / WBC: tissue Blood; for KIDNEY_L / KIDNEY_R / KIDNEY_TOTAL: tissue Kidney; for LIVER: tissue Liver; for A/G / ALP / ALT / AST / BUN / CRE / Ca / Cl / DBIL / GLC / IP / K / LDH / Na / PL / RALB / TBIL / TC / TG / TP / gamma-GTP: tissue Plasma

For `Cc1nnc2n1-c1ccc(Cl)cc1C(c1ccccc1Cl)=NC2` [TRIAZOLAM], the TERMINAL_BW (3 h) was 192 g, the APTT (3 h) was 17.6 s and the Bas (3 h) was 0%. It also gave an Eos (3 h) of 1%, a Fbg (3 h) of 279.8 mg/dL and a Hb (3 h) of 13.9 g/dL. For the same compound, the Ht (3 h) was 42.1%, the Lym (3 h) was 75% and the MCH (3 h) was 21 pg. The MCHC (3 h) was 33%, the MCV (3 h) was 63.8 fL and the Mono (3 h) was 3%. For the same compound, the Neu (3 h) was 20.4%, the PT (3 h) was 13.5 s and the Plat (3 h) was 121.2 x10_4/uL. For the same compound, the RBC (3 h) was 661.2 x10_4/ul, the Ret (3 h) was 9.1% and the WBC (3 h) was 73.1 x10_2/uL. For the same compound, the KIDNEY_L (3 h) was 0.9 g, the KIDNEY_R (3 h) was 0.8 g and the KIDNEY_TOTAL (3 h) was 1.7 g. For the same compound, the LIVER (3 h) was 8 g, the A/G (3 h) was 0.9 and the ALP (3 h) was 1479.6 IU/L. It also gave an ALT (3 h) of 40.8 IU/L, an AST (3 h) of 75.4 IU/L and a BUN (3 h) of 9.4 mg/dL. For the same compound, the CRE (3 h) was 0.2 mg/dL, the Ca (3 h) was 11 mg/dL and the Cl (3 h) was 104.2 meq/L. It also gave a DBIL (3 h) of 0.008 mg/dL, a GLC (3 h) of 176.4 mg/dL and an IP (3 h) of 10.2 mg/dL. For the same compound, the K (3 h) was 4.3 meq/L, the LDH (3 h) was 80.4 IU/L and the Na (3 h) was 141.4 meq/L. For the same compound, the PL (3 h) was 144.4 mg/dL, the RALB (3 h) was 2.4 g/dL and the TBIL (3 h) was 0.062 mg/dL. For the same compound, the TC (3 h) was 75.8 mg/dL, the TG (3 h) was 40.6 mg/dL and the TP (3 h) was 5.1 g/dL. It also gave a gamma-GTP (3 h) of 1.4 IU/L, a TERMINAL_BW (6 h) of 189.9 g and an APTT (6 h) of 19.9 s. The Bas (6 h) was 0%, the Eos (6 h) was 0.8% and the Fbg (6 h) was 284 mg/dL. It also gave a Hb (6 h) of 13.9 g/dL, a Ht (6 h) of 42.5% and a Lym (6 h) of 76.8%. The MCH (6 h) was 21.1 pg, the MCHC (6 h) was 32.6% and the MCV (6 h) was 64.7 fL. For the same compound, the Mono (6 h) was 2.2%, the Neu (6 h) was 19.6% and the PT (6 h) was 13.4 s. The Plat (6 h) was 121.9 x10_4/uL, the RBC (6 h) was 657.4 x10_4/ul and the Ret (6 h) was 9.3%. The WBC (6 h) was 73 x10_2/uL, the KIDNEY_L (6 h) was 0.9 g and the KIDNEY_R (6 h) was 0.9 g. It also gave a KIDNEY_TOTAL (6 h) of 1.7 g, an LIVER (6 h) of 8.1 g and an A/G (6 h) of 0.9. For the same compound, the ALP (6 h) was 1351.6 IU/L, the ALT (6 h) was 40.4 IU/L and the AST (6 h) was 69.8 IU/L. For the same compound, the BUN (6 h) was 7.6 mg/dL, the CRE (6 h) was 0.1 mg/dL and the Ca (6 h) was 10.9 mg/dL. For the same compound, the Cl (6 h) was 104.4 meq/L, the DBIL (6 h) was 0.008 mg/dL and the GLC (6 h) was 186.2 mg/dL. The IP (6 h) was 10.5 mg/dL, the K (6 h) was 4.2 meq/L and the LDH (6 h) was 70 IU/L. The Na (6 h) was 140.8 meq/L, the PL (6 h) was 142.8 mg/dL and the RALB (6 h) was 2.5 g/dL. The TBIL (6 h) was 0.062 mg/dL, the TC (6 h) was 78.6 mg/dL and the TG (6 h) was 34 mg/dL. The TP (6 h) was 5.1 g/dL, the gamma-GTP (6 h) was 1.2 IU/L and the TERMINAL_BW (9 h) was 190.1 g. The APTT (9 h) was 18.1 s, the Bas (9 h) was 0% and the Eos (9 h) was 1.6%. It also gave a Fbg (9 h) of 285.4 mg/dL, a Hb (9 h) of 13.4 g/dL and a Ht (9 h) of 41%. It also gave a Lym (9 h) of 73.8%, an MCH (9 h) of 20.6 pg and an MCHC (9 h) of 32.7%. It also gave an MCV (9 h) of 63 fL, a Mono (9 h) of 2.2% and a Neu (9 h) of 21.6%. For the same compound, the PT (9 h) was 13.7 s, the Plat (9 h) was 122.5 x10_4/uL and the RBC (9 h) was 651.2 x10_4/ul. The Ret (9 h) was 9.4%, the WBC (9 h) was 68 x10_2/uL and the KIDNEY_L (9 h) was 0.9 g. It also gave a KIDNEY_R (9 h) of 0.9 g, a KIDNEY_TOTAL (9 h) of 1.7 g and an LIVER (9 h) of 7.5 g. The A/G (9 h) was 0.9, the ALP (9 h) was 1617.4 IU/L and the ALT (9 h) was 35.8 IU/L. It also gave an AST (9 h) of 65.4 IU/L, a BUN (9 h) of 8.4 mg/dL and a CRE (9 h) of 0.1 mg/dL. For the same compound, the Ca (9 h) was 10.8 mg/dL, the Cl (9 h) was 105 meq/L and the DBIL (9 h) was 0.014 mg/dL. The GLC (9 h) was 181.8 mg/dL, the IP (9 h) was 10.6 mg/dL and the K (9 h) was 4.5 meq/L. It also gave an LDH (9 h) of 68.8 IU/L, a Na (9 h) of 141 meq/L and a PL (9 h) of 150.6 mg/dL. The RALB (9 h) was 2.4 g/dL, the TBIL (9 h) was 0.062 mg/dL and the TC (9 h) was 75.4 mg/dL. It also gave a TG (9 h) of 65 mg/dL, a TP (9 h) of 5.2 g/dL and a gamma-GTP (9 h) of 1 IU/L. It also gave a TERMINAL_BW (24 h) of 208.4 g, an APTT (24 h) of 20.1 s and a Bas (24 h) of 0%. For the same compound, the Eos (24 h) was 1%, the Fbg (24 h) was 279 mg/dL and the Hb (24 h) was 13.3 g/dL. The Ht (24 h) was 40.5%, the Lym (24 h) was 69% and the MCH (24 h) was 20.7 pg. It also gave an MCHC (24 h) of 32.8%, an MCV (24 h) of 63.2 fL and a Mono (24 h) of 3.2%. It also gave a Neu (24 h) of 26.2%, a PT (24 h) of 13.4 s and a Plat (24 h) of 123.8 x10_4/uL. The RBC (24 h) was 640.8 x10_4/ul, the Ret (24 h) was 8.2% and the WBC (24 h) was 109.3 x10_2/uL. The KIDNEY_L (24 h) was 0.9 g, the KIDNEY_R (24 h) was 0.9 g and the KIDNEY_TOTAL (24 h) was 1.8 g. For the same compound, the LIVER (24 h) was 9.2 g, the A/G (24 h) was 0.9 and the ALP (24 h) was 1675 IU/L. It also gave an ALT (24 h) of 41.6 IU/L, an AST (24 h) of 68.2 IU/L and a BUN (24 h) of 12 mg/dL. It also gave a CRE (24 h) of 0.2 mg/dL, a Ca (24 h) of 11.3 mg/dL and a Cl (24 h) of 104.2 meq/L. The DBIL (24 h) was 0.01 mg/dL, the GLC (24 h) was 183.6 mg/dL and the IP (24 h) was 9.4 mg/dL. The K (24 h) was 4.1 meq/L, the LDH (24 h) was 91 IU/L and the Na (24 h) was 141.2 meq/L. It also gave a PL (24 h) of 158.2 mg/dL, an RALB (24 h) of 2.5 g/dL and a TBIL (24 h) of 0.06 mg/dL. For the same compound, the TC (24 h) was 82.2 mg/dL, the TG (24 h) was 83.8 mg/dL and the TP (24 h) was 5.4 g/dL. The gamma-GTP (24 h) was 1.2 IU/L.
